These results are taken from patent US10829473B2, “Modulators of the cystic fibrosis transmembrane conductance regulator protein and methods of use” (AbbVie Overseas S.Á.R.L., priority 2017, dated 2020).

In this assay the target is T1, F508delCFTR (Homo sapiens, UniProt P13569, DEL508-508).
T1 construct: expressed in transfected cells; host or cells: CFBE41o- human lung derived epithelial cells (CFBE41o-F508delCFTR-HRP), doxycycline-inducible
Nature of the assay: Cell Surface Expression-Horse Radish Peroxidase (CSE-HRP) Assay.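 On EC50 (with co-corrector): co-corrector chromenyl benzoic acid corrector at 2 or 3 µM.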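 On Maximum % activity (without co-corrector): % of on-plate positive control chromenyl benzoic acid corrector at 2 or 3 µM.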 To be noted: for Maximum % activity (with co-corrector) / Emax: maximum at any tested concentration; for Emax: read-out: Maximum % activity (without co-corrector). It counts as cell-based. The procedure, abridged:
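Corrector compounds were given as 8-point 3-fold series from 20 or 30 μM, with or without a 2 μM co-corrector, for 18-24 h at 33 °C. Surface HRP was read by luminol luminescence as % of positive control; variable-Hill-slope sigmoidal fitting gave EC50 from triplicate plates.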

The mark [1] stands for this setting: test compound alone, without co-corrector, read-out: EC50 (without co-corrector).
Setting [2] is: with co-corrector, read-out: EC50 (with co-corrector).
[3] abbreviates: test compound with co-corrector.
The mark [4] stands for this setting: test compound with co-corrector, read-out: EC50 (with co-corrector).
Setting [5] is: test compound without co-corrector.

Read-outs that look alike come from different tables or passages of the source. Marks after values point to notes of the source that are not given here.

One may read the EC50 as the concentration that produces a half-maximal response.

T1 sequence (P13569 with tags, fused parts or gaps DEL508-508): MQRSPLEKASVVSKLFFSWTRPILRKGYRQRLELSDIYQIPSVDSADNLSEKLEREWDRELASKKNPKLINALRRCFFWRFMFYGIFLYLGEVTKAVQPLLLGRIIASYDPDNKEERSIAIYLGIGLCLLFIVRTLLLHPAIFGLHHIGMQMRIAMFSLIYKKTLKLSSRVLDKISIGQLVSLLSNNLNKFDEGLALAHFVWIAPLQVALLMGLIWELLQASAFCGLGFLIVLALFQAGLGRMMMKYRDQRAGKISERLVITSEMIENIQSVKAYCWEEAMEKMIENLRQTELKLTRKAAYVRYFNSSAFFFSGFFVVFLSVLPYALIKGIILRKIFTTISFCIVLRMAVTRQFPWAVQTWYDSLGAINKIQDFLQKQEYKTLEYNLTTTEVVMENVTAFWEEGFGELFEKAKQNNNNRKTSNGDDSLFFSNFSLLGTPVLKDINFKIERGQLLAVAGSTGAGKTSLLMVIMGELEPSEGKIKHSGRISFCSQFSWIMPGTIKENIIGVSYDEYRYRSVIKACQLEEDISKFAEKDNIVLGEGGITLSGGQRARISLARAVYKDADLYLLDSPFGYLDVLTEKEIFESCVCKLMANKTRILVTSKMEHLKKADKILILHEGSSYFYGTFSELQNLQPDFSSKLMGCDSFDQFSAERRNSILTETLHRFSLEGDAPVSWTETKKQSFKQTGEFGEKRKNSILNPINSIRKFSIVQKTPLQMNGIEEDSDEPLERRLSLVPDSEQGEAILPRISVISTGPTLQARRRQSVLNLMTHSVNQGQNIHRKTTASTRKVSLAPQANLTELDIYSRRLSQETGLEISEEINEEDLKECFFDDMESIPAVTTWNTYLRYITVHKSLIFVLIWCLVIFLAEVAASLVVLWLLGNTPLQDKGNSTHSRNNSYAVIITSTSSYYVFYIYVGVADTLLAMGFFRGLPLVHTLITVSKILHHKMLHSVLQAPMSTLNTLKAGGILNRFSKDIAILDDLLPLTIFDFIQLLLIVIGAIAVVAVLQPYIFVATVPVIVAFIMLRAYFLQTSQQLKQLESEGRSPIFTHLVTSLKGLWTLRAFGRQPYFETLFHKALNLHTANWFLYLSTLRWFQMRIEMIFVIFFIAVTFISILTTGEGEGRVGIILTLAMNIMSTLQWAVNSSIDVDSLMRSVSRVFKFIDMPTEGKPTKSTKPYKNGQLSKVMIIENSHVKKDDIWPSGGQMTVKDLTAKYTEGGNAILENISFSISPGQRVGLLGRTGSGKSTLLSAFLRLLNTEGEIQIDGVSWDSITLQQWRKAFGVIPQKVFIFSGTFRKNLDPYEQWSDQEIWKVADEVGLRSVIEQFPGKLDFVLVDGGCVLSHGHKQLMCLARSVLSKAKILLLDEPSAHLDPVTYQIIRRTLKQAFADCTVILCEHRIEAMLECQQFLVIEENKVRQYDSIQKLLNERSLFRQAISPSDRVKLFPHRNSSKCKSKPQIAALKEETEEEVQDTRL

As to `Cc1ccc(C2(C(=O)NS(=O)(=O)c3ccccc3)CC2)cc1` [Example III-29, N-(benzenesulfonyl)-1-(4-methylphenyl)cyclopropane-1-carboxamide], the EC50 by setting is: under setting [1], 3 to 10 µM; under setting [2], 3 to 10 µM. The “Maximum % activity (with co-corrector)” value (with co-corrector) is “++ (≥150 and <350)”. For the same compound, under “without co-corrector”, the Emax is below 50%.
On to `COc1cccc(C)c1C1(C(=O)NS(=O)(=O)c2cccc3c2ccn3C)CC1` [Example III-102], for which the EC50 was 3 to 10 µM under setting [1] and 3 to 10 µM under setting [2]. Also, the “Maximum % activity (with co-corrector)” value (with co-corrector) is “+++ (≥350)”. Moreover, the Emax (without co-corrector) was above 150%.
For the compound `Cc1ccc2c(S(=O)(=O)NC(=O)C3(c4cc(C5CCC5)ncc4OC(C)C)CC3)cccc2n1` [Example GI-26, 1-{2-cyclobutyl-5-[(propan-2-yl)oxy]pyridin-4-yl}-N-(2-methylquinoline-5-sulfonyl)cyclopropane-1-carboxamide], the EC50 is 3 to 10 µM under setting [1] and below 3 µM under setting [2]. Further, under “with co-corrector”, the “Maximum % activity (with co-corrector)” value was “+++ (≥350)”. Also, the Emax (without co-corrector) was above 150%.
The matching figures for `O=C(NS(=O)(=O)c1cccc2ncccc12)C1(c2ccccc2OC(F)(F)F)CCC1` [II-3]: 3 to 10 µM, below 3 µM, “+++ (≥350)” and above 150%.
The like results for `COc1ncc(C2CCC2)cc1C1(C(=O)NS(=O)(=O)c2cccc3ccn(C)c23)CC1` [Example I-20, 1-(5-cyclobutyl-2-methoxypyridin-3-yl)-N-(1-methyl-1H-indole-7-sulfonyl)cyclopropane-1-carboxamide] were, in that order, below 3 µM, below 3 µM, “+++ (≥350)” and above 150%.
The like results for `COc1ccc(C(C)(C)C)cc1C1(C(=O)NS(=O)(=O)c2cccc3c2CCCN3)CC1` [Example I-39, 1-(5-tert-butyl-2-methoxyphenyl)-N-(1,2,3,4-tetrahydroquinoline-5-sulfonyl)cyclopropane-1-carboxamide] were, in that order, below 3 µM, below 3 µM, “+++ (≥350)” and above 150%.
For `COc1c(C)cccc1C1(C(=O)NS(=O)(=O)c2cccc3ncccc23)CC1` [II-64], the EC50 reads like this: under setting [1], 3 to 10 µM; under setting [2], below 3 µM. Besides, the “Maximum % activity (with co-corrector)” value (with co-corrector) is reported as “+++ (≥350)”. Also, under “without co-corrector”, the Emax was above 150%.
As to `CCc1ncc(OC(C)C)cc1C1(C(=O)NS(=O)(=O)c2cccc3ncccc23)CC1` [GII-16, 1-{2-ethyl-5-[(propan-2-yl)oxy]pyridin-3-yl}-N-(quinoline-5-sulfonyl)cyclopropane-1-carboxamide], the “Maximum % activity (with co-corrector)” value under setting [3] was “++ (≥150 and <350)”. The EC50 under setting [4] fell in the range of 3 to 10 µM. In addition, under setting [5], the “EC50 (without co-corrector)” value was “++^a” and the Emax is 50 to 150%.
Consider `Cc1ccc(C2(C(=O)NS(=O)(=O)Cc3ccccc3)CC2)cc1` [Example III-111, 1-(4-methylphenyl)-N-(phenylmethanesulfonyl)cyclopropane-1-carboxamide], for which the EC50 under setting [1] is above 10 µM and the EC50 under setting [2] lay in the range of 3 to 10 µM. The “Maximum % activity (with co-corrector)” value (with co-corrector) was “++ (≥150 and <350)”. The Emax (without co-corrector) was below 50%.
As for `COC(=O)C1(c2ccc(OC)c(C3(C(=O)NS(=O)(=O)c4cccc5ncccc45)CC3)c2)CC1` [II-30], the half-maximal effective concentration (EC50) is 3 to 10 µM under setting [1] and below 3 µM under setting [2]. For the same compound, the “Maximum % activity (with co-corrector)” value (with co-corrector) is recorded as “+++ (≥350)”. For the same compound, under “without co-corrector”, the Emax was above 150%.
For the compound `CCOc1ccc(C)cc1C1(C(=O)NS(=O)(=O)c2cccc3[nH]ncc23)CC1` [II-74], the EC50 was below 3 µM under setting [1] and below 3 µM under setting [2]. In addition, the “Maximum % activity (with co-corrector)” value (with co-corrector) is on record as “+++ (≥350)”. Moreover, for the setting “without co-corrector”, the Emax was above 150%.
Turning to `COc1cc(C2(C(=O)NS(=O)(=O)c3cccc4ccccc34)CC2)ccc1C` [II-2], the EC50 runs as follows: under setting [1], 3 to 10 µM; under setting [2], 3 to 10 µM. Besides, where the note is “with co-corrector”, the “Maximum % activity (with co-corrector)” value is given as “+++ (≥350)”. Also, the Emax (without co-corrector) was above 150%.
Consider `O=C(NS(=O)(=O)c1cccc2ccccc12)C1(c2cccc(Br)c2)CC1` [Example III-92, 1-(3-bromophenyl)-N-(naphthalene-1-sulfonyl)cyclopropane-1-carboxamide], for which the EC50 reads like this: under setting [1], 3 to 10 µM; under setting [2], 3 to 10 µM. Further, where the note is “with co-corrector”, the “Maximum % activity (with co-corrector)” value was “+++ (≥350)”. Also, the Emax (without co-corrector) is above 150%.
Consider `COc1ccc(OC(C)C)cc1C1(C(=O)NS(=O)(=O)c2cccc3ncccc23)CC1` [Example I-14, 1-{2-methoxy-5-[(propan-2-yl)oxy]phenyl}-N-(quinoline-5-sulfonyl)cyclopropane-1-carboxamide], for which the EC50 is below 3 µM under setting [1] and below 3 µM under setting [2]. For the setting “with co-corrector”, the “Maximum % activity (with co-corrector)” value is “+++ (≥350)”. In addition, under “without co-corrector”, the Emax was above 150%.
Consider `O=C(NS(=O)(=O)c1ccc(-n2cccn2)cc1)C1(c2cccc(Cl)c2)CC1` [Example III-73, 1-(3-chlorophenyl)-N-[4-(1H-pyrazol-1-yl)benzene-1-sulfonyl]cyclopropane-1-carboxamide], for which the EC50 by setting is: under setting [1], above 10 µM; under setting [2], above 10 µM. Besides, the “Maximum % activity (with co-corrector)” value (with co-corrector) is recorded as “+ (<150)”. Also, the Emax (without co-corrector) is below 50%.
With `COc1ccc(C2(C(=O)NS(=O)(=O)c3cccc4ccccc34)CCCC2)cc1OC` [Example III-90, 1-(3,4-dimethoxyphenyl)-N-(naphthalene-1-sulfonyl)cyclopentane-1-carboxamide], the EC50 is above 10 µM under setting [1] and above 10 µM under setting [2]. Further, the “Maximum % activity (with co-corrector)” value (with co-corrector) was “+ (<150)”. The Emax (without co-corrector) was below 50%.
On to `COc1cccc(C)c1C1(C(=O)NS(=O)(=O)c2cccc3ncccc23)CC1` [II-35], for which the EC50 is 3 to 10 µM under setting [1] and below 3 µM under setting [2]. Moreover, the “Maximum % activity (with co-corrector)” value (with co-corrector) is given as “+++ (≥350)”. The Emax (without co-corrector) is above 150%.
The matching figures for `COc1ccc(C2CC2)cc1C1(C(=O)NS(=O)(=O)c2cccc3c2CCCN3)CCC1` [Example I-27, 1-(5-cyclopropyl-2-methoxyphenyl)-N-(1,2,3,4-tetrahydroquinoline-5-sulfonyl)cyclobutane-1-carboxamide]: 3 to 10 µM, below 3 µM, “+++ (≥350)” and above 150%.
The like results for `CCc1ccc(O[C@H]2CCOC2)c(C2(C(=O)NS(=O)(=O)c3cccc4ncccc34)CC2)c1` [Example I-117, 1-(5-ethyl-2-{[(3S)-oxolan-3-yl]oxy}phenyl)-N-(quinoline-5-sulfonyl)cyclopropane-1-carboxamide] were, in that order, below 3 µM, below 3 µM, “+++ (≥350)” and above 150%.
The like results for `CCOc1ccc(C)cc1C1(C(=O)NS(=O)(=O)c2cccc3nc(C)ccc23)CC1` [Example I-83, 1-(2-ethoxy-5-methylphenyl)-N-(2-methylquinoline-5-sulfonyl)cyclopropane-1-carboxamide] were, in that order, below 3 µM, below 3 µM, “+++ (≥350)” and above 150%.
Regarding `Cc1ccc2c(S(=O)(=O)NC(=O)C3(c4cc(C5CC5)cnc4N4CCOCC4)CC3)cccc2n1` [GIII-20], under setting [3], the “EC50 (with co-corrector)” value is “++^a”; the “Maximum % activity (with co-corrector)” value is “++ (≥150 and <350)”. Also, under setting [5], the “EC50 (without co-corrector)” value is given as “++^a” and the Emax lay in the range of 50 to 150%.
Turning to `CNC1(c2ccc(OC)c(C3(C(=O)NS(=O)(=O)c4cccc5ncccc45)CC3)c2)CC1` [Example I-85, 1-{2-methoxy-5-[1-(methylamino)cyclopropyl]phenyl}-N-(quinoline-5-sulfonyl)cyclopropane-1-carboxamide], the EC50 runs as follows: under setting [1], above 10 µM; under setting [2], 3 to 10 µM. Under “with co-corrector”, the “Maximum % activity (with co-corrector)” value is “++ (≥150 and <350)”. The Emax (without co-corrector) was below 50%.
With `CCc1cnc(OCC(C)C)c(C2(C(=O)NS(=O)(=O)c3cccc4nc(N)ccc34)CC2)c1` [Example I-98, N-(2-aminoquinoline-5-sulfonyl)-1-[5-ethyl-2-(2-methylpropoxy)pyridin-3-yl]cyclopropane-1-carboxamide], the EC50 is below 3 µM under setting [1] and below 3 µM under setting [2]. The “Maximum % activity (with co-corrector)” value (with co-corrector) was “+++ (≥350)”. The Emax (without co-corrector) is above 150%.
Take `CCc1cnc(N2CCC(OC(C)C)CC2)c(C2(C(=O)NS(=O)(=O)c3cccc4ncccc34)CC2)c1` [GII-54, 1-(5-ethyl-2-{4-[(propan-2-yl)oxy]piperidin-1-yl}pyridin-3-yl)-N-(quinoline-5-sulfonyl)cyclopropane-1-carboxamide]: under setting [3], the “Maximum % activity (with co-corrector)” value was “+++ (≥350)”. The EC50 under setting [4] fell in the range of 3 to 10 µM and the EC50 (test compound without co-corrector, read-out: EC50 (without co-corrector)) was in the range of 3 to 10 µM. Further, under setting [5], the Emax was above 150%.
Turning to `O=C(O)c1ccccc1S(=O)(=O)NC(=O)C1(c2ccc(Cl)cc2Cl)CC1` [Example III-67], the EC50 is above 10 µM under setting [1] and above 10 µM under setting [2]. In addition, the “Maximum % activity (with co-corrector)” value (with co-corrector) was “+ (<150)”. In addition, where the note is “without co-corrector”, the Emax is below 50%.
As to `COc1ncc(C2CCC2)c(C)c1C1(C(=O)NS(=O)(=O)c2cccc3cnn(C)c23)CC1` [II-43], the EC50 was below 3 µM under setting [1] and below 3 µM under setting [2]. Under “with co-corrector”, the “Maximum % activity (with co-corrector)” value is “+++ (≥350)”. Besides, the Emax (without co-corrector) lay in the range of 50 to 150%.
